# Patent US20100234592A1, “Corrosion Inhibitors Having Increased Biodegradability and Reduced Toxicity” (priority 2006, published 2010)
# Like-named read-outs stand apart in the source and are kept apart here.
# Legend:
# [1] = Shell wheel test (corrosion inhibition); details: carbon steel coupons in saltwater/petroleum mixture, pH 3.5, 70° C., 24 hours; 50 ppm of a 40% solution of the inhibitor; from mass decrease based on a blank value
# Experimental: The inventive compounds were tested as corrosion inhibitors in the Shell wheel test. Coupons of carbon steel (DIN 1.1203 with surface area 15 cm^2) were immersed into a saltwater/petroleum mixture (9:1.5% NaCl solution adjusted to pH 3.5 with acetic acid) and exposed to this medium at a peripheral speed of 40 rpm at 70° C. for 24 hours. The dosage of the inhibitor was 50 ppm of a 40% solution of the inhibitor. The protection values were calculated from the mass decrease of the coupons based on a blank value.
# [2] = Biodegradability (OECD 306)
# [3] = LPR test (test conditions analogous to ASTM D 2776); set-up: concentration or dose not given beside the values
# Experimental: The products were also tested in the LPR test (test conditions analogous to ASTM D 2776).
# Shaking foam test = assay type: physicochemical; details: 50 ml of a 3% aqueous solution in demineralized water shaken 20 times within 10 seconds; graded weakly foaming, foaming or highly foaming
# Skeletonema costatum = experiment: Toxicity (EC50 Skeletonema costatum); assay type: cell-based
Molecule,Ø % protection [1] [%],Biodegradability [2] [%],Protection after 10 min [3] [%],Protection after 30 min [3] [%],Protection after 60 min [3] [%],Foaming behavior (Shaking foam test),Toxicity EC50 (Skeletonema costatum) [µg/mL],Biodegradability ([2]; OECD 306) [%],EC50 (Skeletonema costatum) [µg/mL]
"CCCCCCCCNC(CCSC)C(=O)O.NCCO (racemic) [compound from example 1, N-Octyl-DL-methionine monoethanolammonium salt]",63,92.4,60.5,75.3,88.4,weakly foaming,44.5,,
"CCCCCCCCNC(CCSC)C(=O)O.OCCN(CCO)CCO (racemic) [compound from example 2, N-Octyl-DL-methionine triethanolammonium salt]",72,,62.9,76.1,90.0,weakly foaming,,,
"CCCCCCCC/C=C\CCCCCCCCNC(CCSC)C(=O)O.OCCN(CCO)CCO (racemic) [compound from example 8, N-Oleyl-DL-methionine triethanolammonium salt]",85,85.4,80.1,94.5,98.6,weakly foaming,13.6,,
"CCCCCCCCCCCC(=O)NCC(=O)[O-].[Na+] [comparative 2, N-lauroylglycine sodium salt, reference compound]",45,,15.4,35.2,42.9,highly foaming,,44.5,8.5
"CCCCCCCCCCCCCC(=O)N[C@@H](CC(=O)[O-])C(=O)[O-].[Na+].[Na+] [comparative 3, N-myristoyl-L-aspartic acid disodium salt, reference compound]",38,,20.0,42.6,47.1,highly foaming,,50.3,9.5
"N-Cocoyl-DL-methionine N,N-diethyl-(2-hydroxyethyl)-ammonium salt [compound from example 6]",83,,92.0,96.7,99.0,,15.4,,
N-Cocoyl-DL-methionine morpholinium salt [compound from example 5],85,,90.3,94.2,98.9,,,,
N-Dodecyl-DL-methionine cyclohexylammonium salt [compound from example 3],78,,76.4,88.4,97.2,weakly foaming,22.3,84.0,
N-Dodecyl-DL-methionine dibutylammonium salt [compound from example 4],80,,74.8,87.3,96.8,weakly foaming,,,
N-Oleyl-DL-methionine 2-(2-hydroxyethoxy)ethylammonium salt [compound from example 7],82,,78.5,92.9,98.5,weakly foaming,,,
